Data taken from patent publication US7977466B2, “C-glycoside derivatives and salts thereof” (Astellas Pharma Inc., priority 2003, dated 2011).

Columns and labels:
human SGLT2 = molecular target: T1, human SGLT2 (Homo sapiens, UniProt P31639); assay: Inhibition of human Na+-glucose cotransporter (human SGLT2) activity: methyl-α-D-glucopyranoside intake in CHO cells stably expressing human SGLT2; assay type: cell-based; details: CHO cell stably expressing human SGLT2; methyl-α-D-(U-14C)glucopyranoside intake, 37° C., two hours
T1 construct: expressed in transfected cells; host or cells: CHO-K1
T1 sequence (P31639 1-672): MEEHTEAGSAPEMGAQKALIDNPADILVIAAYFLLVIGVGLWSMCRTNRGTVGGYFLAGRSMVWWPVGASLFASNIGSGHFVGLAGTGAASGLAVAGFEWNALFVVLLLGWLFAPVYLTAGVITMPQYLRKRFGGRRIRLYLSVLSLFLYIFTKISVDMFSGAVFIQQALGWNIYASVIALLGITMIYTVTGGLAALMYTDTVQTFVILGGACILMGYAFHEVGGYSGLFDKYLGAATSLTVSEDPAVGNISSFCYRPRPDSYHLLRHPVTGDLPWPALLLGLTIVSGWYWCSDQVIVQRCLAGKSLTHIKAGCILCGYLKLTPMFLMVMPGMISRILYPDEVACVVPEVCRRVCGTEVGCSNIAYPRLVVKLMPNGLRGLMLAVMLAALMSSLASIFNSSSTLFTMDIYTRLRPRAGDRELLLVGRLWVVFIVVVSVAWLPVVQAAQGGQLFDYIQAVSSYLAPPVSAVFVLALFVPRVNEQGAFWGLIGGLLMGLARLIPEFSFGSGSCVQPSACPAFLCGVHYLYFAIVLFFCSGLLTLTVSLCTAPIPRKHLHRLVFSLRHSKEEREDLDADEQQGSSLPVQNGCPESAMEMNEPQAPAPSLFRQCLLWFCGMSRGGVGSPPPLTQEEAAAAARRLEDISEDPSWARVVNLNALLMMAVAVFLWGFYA
Text: Inhibition of Human Na^+-Glucose Cotransporter (Human SGLT2) Activity
(1) Preparation of Human SGLT 2 Expression Vector
First, single-strand cDNA was reversely transcripted from total RNA originating from the human kidney (manufactured by BD Biosciences Clontech) using a Superscript II (manufactured by Invitrogen Corporation) and a random hexamer. Second, using the cDNA as a template, a DNA fragment encoding a human SGLT2 (Wells, R. G. et al., Am. J. Physiol., 1992, 263(3) F459) was amplified by the PCR reaction using Pyrobest DNA polymerase (manufactured by Takara Bio Inc.). That is, a Hind III site and an EcoRI site were inserted into the 5′ side and the 3′ side of the DNA fragment, respectively by using primers.
The amplified fragment was cloned into a pCR2.1-Topo vector using a Topo TA Cloning Kit (manufactured by Invitrogen Corporation) and the cloned vector was transfected into a competent cell of Escherichia coli JM109. Ampicillin-resistant clones were cultured in a LB medium containing ampicillin (100 mg/l). A plasmid was purified from the cultured Escherichia coli using the method of Hanahan (see Maniatis et al., “Molecular Cloning”). A DNA fragment for encoding a human SGLT2 was obtained by the Hind III/EcoRI digestion of the plasmid and ligated and cloned to the same site of the expression vector pcDNA 3.1 (manufactured by Invitrogen Corporation) using a DNA ligase (manufactured by Roche Diagnostics). The ligated clone was transfected into a competent cell of Escherichia coli JM109 in the same manner as described above and cultured in a LB medium containing ampicillin, and a human SGLT2 expression vector was obtained using the method of Hanahan.
(2) Preparation of Human SGLT2 Expressed Cells
The human SGLT2 expression vector was transfected into a CHO-K1 cell using Lipofectamine2000 (manufactured by Invitrogen Corporation). The cell was cultured in a Ham's F12 medium (manufactured by Nissui Pharmaceutical Co., Ltd.) containing penicillin (50 IU/ml, manufactured by Dainippon Pharmaceutical Co., Ltd.), streptomycin (50 μg/ml, manufactured by Dainippon Pharmaceutical Co., Ltd.), Geneticin (40 μg/ml, manufactured by Invitrogen Corporation), and 10% fetal bovine serum in the presence of 5% CO2 at 37° C. for two weeks, and Geneticin-resistant clones were obtained.
(3) Inhibition of methyl-α-D-glucopyranoside Intake
After removing the medium of a CHO cell which stably expresses the human SGLT2, a pretreatment buffer solution (buffer solution of pH 7.4 containing choline chloride (140 mM), potassium chloride (2 mM), calcium chloride (1 mM), magnesium chloride (1 mM), 2-[4-(2-hydroxyethyl)1-piperazinyl]ethanesulfonic acid (10 mM), and tris(hydroxymethyl)aminomethane (5 mM)) was added in the amount of 100 μl per well, and incubated at 37° C. for 20 minutes.
11 μl of methyl-α-D-(U-14C)glucopyranoside (manufactured by Amersham Pharmacia Biotech) was mixed with 1,000 μl of a buffer solution for intake containing a test compound (buffer solution of pH 7.4 containing sodium chloride (140 mM), potassium chloride (2 mM), calcium chloride (1 mM), magnesium chloride (1 mM), methyl-α-D-glucopyranoside (50 μM), 2-[4-(2-hydroxy ethyl)1-piperazinyl]ethanesulfonic acid (10 mM), and tris(hydroxymethyl)aminomethane (5 mM)) to prepare a buffer solution for intake. A buffer solution for intake without a test compound was prepared for a control group. A buffer solution for basal intake without a test compound containing choline chloride (140 mM) instead of sodium chloride for measuring the basal intake was prepared as well.
After removing the pretreatment buffer solution, the buffer solution for intake was added (25 μl per well) and incubated at 37° C. for two hours. […]

[1] = system: blood glucose of KK-A^y mice; assay: Hypoglycemic activity confirmation test in fed KK-Ay mice; assay type: in vivo, mouse; details: fed male KK-A^y mice, oral, suspension 1 mg/10 ml in 0.5% methylcellulose at 10 ml/kg
Protocol: Hypoglycemic Activity Confirmation Test
Fed KK-A^y mice (CLEA Japan, Inc., male) were used. The test compound was suspended in 0.5% methylcellulose solution to a concentration of 1 mg/10 ml. The weight of each mouse was measured. The test compound suspension was orally administered to the mice at a dose of 10 ml/kg. Only 0.5% methylcellulose solution was administered to the mice of a control group. Each group consisted of six mice. Blood was collected from the tail vein immediately before administering the compound and one, two, four, and eight hours after administering the compound. The blood glucose value was measured using a glucose CII Test Wako (manufactured by Wako Pure Chemical Industries, Ltd.). The intensity of hypoglycemic activity was determined by calculating the area under the blood glucose value-time curve (AUC) using a trapezoidal method from the glucose value of 0-8 hours after administering the compound and calculating the rate (%) of the decrease in the AUC of the drug-administered group from that of the control group.

Compound | IC50 (human SGLT2) | Hypoglycemic activity (rate of decrease in blood glucose AUC 0-8 hours versus control group) [1]
COc1ccc(Cc2cc3ccccc3s2)cc1[C@@H]1O[C@H](CO)[C@@H](O)[C@H](O)[C@H]1O [Example 117] | 13 nM | –
COc1ccc([C@@H]2O[C@H](CO)[C@@H](O)[C@H](O)[C@H]2O)cc1Cc1cc2ccccc2s1 [Example 134] | 14 nM | 39%
COc1cc(OC)c([C@@H]2O[C@H](CO)[C@@H](O)[C@H](O)[C@H]2O)cc1Cc1cc2ccccc2s1 [Example 141] | 3.8 nM | 34%
OC[C@H]1O[C@@H](c2cc(Cc3cc4ccccc4s3)c(O)cc2O)[C@H](O)[C@@H](O)[C@@H]1O [Example 142] | 21 nM | –
CCc1ccc(Cc2nc([C@@H]3O[C@H](CO)[C@@H](O)[C@H](O)[C@H]3O)c(Cl)nc2Cl)cc1 [Example 150] | 6.5 nM | –
OC[C@H]1O[C@@H](c2cc(Cc3cc4ccsc4s3)ccc2O)[C@H](O)[C@@H](O)[C@@H]1O [Example 174] | 6.6 nM | –
